Measured values taken from patent publication US20260130906A1, “THERAPY COMPRISING ANTI-CD19 ANTIBODY AND SUMO-ACTIVATING ENZYME INHIBITOR” (TAKEDA PHARMACEUTICAL COMPANY LIMITED, priority 2021, published 2026).

Tests used:
lymphoma cell lines = assay: ADCC assay (PBMC effector cells); type: cell-based; conditions: PBMCs pre-treated 0.1 μM TAK-981 17-24 h and/or 1 nM tafasitamab; E:T 10:1; 2 h; FIG. 1
Description: A panel of 9 aggressive lymphoma cell lines was analyzed (7 DLBCL and 2 Burkitt lymphoma). OCI-LY10 and TMD8 cells were cultured in Iscove's modified Dulbecco medium supplemented with either 20% human plasma or 10% FCS. All other cell lines were cultured in RPMI medium (Gibco) supplemented with 10%-20% FCS (Sigma). Cells were cultured at 37° C. in 5% CO2.
Whole Blood was collected from healthy volunteers. PBMCs were isolated via density-gradient centrifugation using Biocoll (Biochrome) or Pancoll (PAN Biotech) separating solution and SepMate tubes (STEMCELL Technologies).
PBMC effector cells were treated with 0.1 μM TAK-981 or DMSO as negative control for 17-24 hours. Target cells were stained with 1 μM carboxyfluorescein succinimidyl ester (CFSE). Subsequently, target cells were incubated with pre-treated PBMCs at an effector to target (E:T) ratio of 10:1 in the presence or absence of 1 nM tafasitamab for 2 hours at 37° C. and 5% CO2. Dead cells were stained with 1 μg/ml 4′,6-diamidino-2-phenylindole (DAPI) and flow cytometry was used to determine cytotoxicity against target cells: Cells were gated for viable (DAPI negative) and dead target cells (DAPI positive). The specific cytotoxicity was defined as the percentages of dead target cells in the treated sample substracted by the percentage of dead target cells in the control sample without antibody.

DAUDI = assay: ADCP assay (macrophages); type: cell-based, human; conditions: macrophages pre-treated 1 μM TAK-981 and/or 1 nM tafasitamab, E:T 2:1, 3 h, FIG. 4
Description: Monocytes were positively selected from PBMCs using CD14 MicroBeads on a MACS LS column according to the manufacturer's protocol (Miltenyi Biotec). Isoltaed cells were re-suspended in RPMI medium supplemented with 10% FCS and 1× GlutaMax. Monocytes were maturated into macrophages in T-flasks for 6 to 7 days in the presence of 50 ng/ml M-CSF.
After maturation, macrophages were stained with 2 μM CFSE and detached using 5 mM EDTA and scraping. After washing with PBS, macrophages were re-suspended in medium containing either DMSO (negative control) or 1 μM TAK-981 and allowed to re-attach in 96 well culture plates for 16-24 hours. Target cells were stained using the CellTrace Violet Cell Proliferation Kit (Invitrogen) and co-cultured with pre-treated macrophages in the presence or absence of 1 nM tafasitamab for 3 hours at an E:T ratio of 2:1. The cells were detached using 0.05% Trypsin-EDTA and transferred into multi-well flow cytometry plates. Using flow cytometry the percentage of phagocytosis was evaluated, defined as the percentage of double positive cells out of all CellTrace Violet positive cells.

SUMO-activating enzyme = SUMO-activating enzyme (Homo sapiens, UniProt Q9UBT2); assay: Biochemical assays of SUMO-activating enzyme inhibition
Sequence of SUMO-activating enzyme (Q9UBT2 whole entry): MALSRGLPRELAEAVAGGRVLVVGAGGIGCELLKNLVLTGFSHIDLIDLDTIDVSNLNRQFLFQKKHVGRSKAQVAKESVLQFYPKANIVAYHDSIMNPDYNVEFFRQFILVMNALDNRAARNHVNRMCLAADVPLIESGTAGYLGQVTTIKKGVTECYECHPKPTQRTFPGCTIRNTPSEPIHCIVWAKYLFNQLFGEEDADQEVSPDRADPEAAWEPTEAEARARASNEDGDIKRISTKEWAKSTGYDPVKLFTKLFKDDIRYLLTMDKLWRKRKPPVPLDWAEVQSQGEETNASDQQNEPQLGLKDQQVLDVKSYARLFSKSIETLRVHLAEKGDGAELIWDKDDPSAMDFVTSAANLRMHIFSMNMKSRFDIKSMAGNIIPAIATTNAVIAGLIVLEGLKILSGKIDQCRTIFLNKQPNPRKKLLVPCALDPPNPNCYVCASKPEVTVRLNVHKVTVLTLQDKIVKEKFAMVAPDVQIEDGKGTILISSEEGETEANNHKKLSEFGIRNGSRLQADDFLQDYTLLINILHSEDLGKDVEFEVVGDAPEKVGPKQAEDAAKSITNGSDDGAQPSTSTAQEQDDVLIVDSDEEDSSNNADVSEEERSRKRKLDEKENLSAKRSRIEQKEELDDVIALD
Sequence of SUMO-activating enzyme (Q9UBE0 whole entry partner): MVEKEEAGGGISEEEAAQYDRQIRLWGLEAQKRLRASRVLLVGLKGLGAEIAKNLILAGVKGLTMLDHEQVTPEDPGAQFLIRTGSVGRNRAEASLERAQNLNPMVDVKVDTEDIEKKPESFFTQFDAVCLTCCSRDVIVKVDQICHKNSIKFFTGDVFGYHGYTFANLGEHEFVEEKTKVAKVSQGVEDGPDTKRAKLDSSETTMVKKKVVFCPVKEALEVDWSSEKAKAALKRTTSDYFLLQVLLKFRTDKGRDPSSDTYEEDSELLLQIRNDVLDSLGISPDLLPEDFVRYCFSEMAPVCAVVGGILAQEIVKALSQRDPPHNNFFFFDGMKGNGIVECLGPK
Sequence of SUMO-activating enzyme (P63165 1-97 partner limits assumed): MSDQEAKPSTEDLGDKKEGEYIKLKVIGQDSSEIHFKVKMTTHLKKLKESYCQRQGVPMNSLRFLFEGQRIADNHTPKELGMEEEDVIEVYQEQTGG
Excerpt: (§1) SAE inhibitors, as disclosed herein, are described, for example, in US 2016/0009744 and U.S. Pat. No. 9,695,154 which is hereby incorporated by reference in its entirety. They may be prepared by methods known to one skilled in the art and/or according to the methods described in US 2016/0009744 and U.S. Pat. No. 9,695,154 . . . . Central to the mechanism of action of useful SAE inhibitors, such as Compound I-263a, in combinations and methods of the present disclosure is production of type 1 IFNs and induction of an innate immune response with activation of both natural killer (NK) cells and macrophages.

[1] = tested on: SUMO-activating enzyme and SUMOylation; assay: Inhibition of SAE and SUMOylation in cultured tumor cell lines; type: cell-based; conditions: cultured mouse and human tumor cell lines
Excerpt: as §1

Compound | Specific killing of lymphoma cell lines (specific cytotoxicity) (lymphoma cell lines) | Phagocytosis (DAUDI) | inhibition of SUMO-activating enzyme activity (SUMO-activating enzyme; mechanism-based, covalent adduct with SUMO) | selectivity for SUMO-activating enzyme (SUMO-activating enzyme; over ubiquitin-activating enzyme, Nedd8-activating enzyme, autophagy related 7 enzyme) | inhibition of SUMO-activating enzyme and SUMOylation [1]
Tafasitamab: humanized monoclonal antibody that targets the antigen CD19, engineered in the IgG Fc-region to enhance ADCC; sequences in Table 1 | resulted in specific killing | effectively phagocytosed | – | – | –
Cc1sc(C(=O)c2cncnc2N[C@@H]2C[C@H](COS(N)(=O)=O)[C@@H](O)C2)cc1[C@@H]1NCCc2ccc(Cl)cc21 [Compound I-263a, [(1R,2S,4R)-4-{[5-({4-[(1R)-7-chloro-1,2,3,4-tetrahydroisoquinolin-1-yl]-5-methyl-2-thienyl}carbonyl)pyrimidin-4-yl]amino}-2-hydroxycyclopentyl]methyl sulfamate] | resulted in specific killing | effectively phagocytosed | potently inhibits enzyme activity | Strong selectivity | Selective and potent inhibition
